In patent US4112228A, “7-(D-α-Hydroxy-2-arylacetamido)-3-(2-carboxyalkyl-2,3-dihydro-s-tri azolo-[4,3-b]pyridazin-3-on-6-ylthiomethyl)-3-cephem-4-carboxylic acids and derivatives” (priority 1977, dated 1978):
Where two headings read alike, the source gives them in different places.

How the values were obtained:
[1] = test system: S. aureus; experiment: MIC by Steers' agar dilution method; type: cell-based; details: Staphylococcus aureus
[2] = test system: Shig. flexneri; experiment: MIC by Steers' agar dilution method; type: cell-based; details: Shigella flexneri, MHA
[3] = test system: Shig. sonnei; experiment: MIC by Steers' agar dilution method; type: cell-based; details: Shigella sonnei, MHA
[4] = test system: Sal. typhosa; experiment: MIC by Steers' agar dilution method; type: cell-based; details: St-1; MHA; Table 3
[5] = test system: bacteria of Table 4; experiment: Media effect on MIC (Nutrient, Mueller-Hinton, Heart-Infusion agar); type: cell-based; details: NA, MHA, HIA
[6] = test system: E. coli Juhl; experiment: Standard experimental infection in mice; type: in vivo; details: Table 6
[7] = test system: K. pneumoniae A9977; experiment: Standard experimental infection in mice; type: in vivo; details: for ED50: Klebsiella pneumoniae, A9977, read-out: PD50
[8] = test system: E. cloacae A20464 (El-19); experiment: Standard experimental infection in mice; type: in vivo; details: Run C-811
[9] = test system: Pr. vulgaris; experiment: MIC by Steers' agar dilution method; details: Proteus vulgaris
[10] = test system: Ps. aeruginosa; experiment: MIC by Steers' agar dilution method; details: Pseudomonas aeruginosa
[11] = test system: Serr. marcescens; experiment: MIC by Steers' agar dilution method; details: Serratia marcescens
[12] = test system: P. inconstans; experiment: MIC by Steers' agar dilution method; details: Providencia alcalifaciens
[13] = test system: Klebsiella sp.; experiment: MIC by Steers' agar dilution method
[14] = test system: Citrobacter sp.; experiment: MIC by Steers' agar dilution method
[15] = test system: P. mirabilis A9900 (Pm-2); experiment: Standard experimental infection (single sc treatment); details: for No. of survivors/No. tested: Run C-810, 1×10^3 LD50, single sc
[16] = strain not given (1st of 2), MHA, Example 10
[17] = strain not named (2nd of 2), MHA, Example 10

Cn1nnnc1SCC1=C(C(=O)O)N2C(=O)[C@@H](NC(=O)[C@H](O)c3ccccc3)[C@H]2SC1 [Cefamandole, cefamandole, reference compound]
4/5: No. of survivors/No. tested ([8]; 1.6 mg./kg.)
6.25 mg/kg: ED50 ([7]; Table 6)
100 µg/mL: MIC ([9]; Pv-3 A9699 (β-lactamase), HIA, Table 4) | MIC ([11]; A20019, MHA, Table 1) | MIC ([11]; MHA, Example 10) | MIC ([11]; Sm-1 A20019 (β-lactamase), MHA, Table 4) | MIC ([11]; Sm-3 A20336, MHA, Table 4)
2/5: No. of survivors/No. tested ([6]; 1.6 mg./kg.) | No. of survivors/No. tested ([15]; 50 mg./kg.)
0.8 mg/kg: ED50 ([8]; Enterobacter cloacae, read-out: PD50)
little media effect: Media effect on MIC [5]
0.8 µg/mL: MIC ([1]; Sa-29 No. 193, MHA, Table 2) | MIC ([1]; Sa-37 A9524, MHA, Table 2) | MIC ([1]; Sa-56 A9630, MHA, Table 2) | MIC ([1]; Sa-62 A20606, MHA, Table 2) | MIC ([9]; Pv-1 A9436, MHA, Table 3) | MIC ([9]; Pv-6 A9716, MHA, Table 3) | MIC [12] | MIC ([13]; Kx-3 A20346, MHA, Table 3)
0.2 µg/mL: MIC ([1]; Sa-2 Smith A9537, HIA, Table 4) | MIC ([1]; Sa-2 Smith A9537, MHA, Table 2) | MIC ([1]; Sa-2 Smith A9537, MHA, Table 4) | MIC ([1]; Sa-2 Smith A9537, NA, Table 4) | MIC ([1]; Sa-3 No. 193, MHA, Table 2) | MIC ([1]; Sa-8, MHA, Table 2) | MIC ([1]; Sa-9 No. 193, MHA, Table 2) | MIC ([1]; Sa-11 BX-1633 A9606, MHA, Table 2) | MIC ([1]; Sa-34 A15092, MHA, Table 2) | MIC ([1]; Sa-38 A9534, MHA, Table 2) | MIC ([1]; Sa-41 A9602, MHA, Table 2) | MIC ([1]; Smith, MHA, Example 10) | MIC ([3]; Example 10) | MIC [4] | MIC ([9]; ATCC9920, Pv-4 ATCC 9920, MHA, Table 3) | MIC ([9]; Pv-1 A9436, NA, Table 4) | MIC [9, 16]
50 mg/kg: ED50 ([15]; Proteus mirabilis, in Mus musculus, sc, read-out: PD50)
0.4 µg/mL: MIC ([1]; BX-1633, MHA, Example 10) | MIC ([1]; Sa-10 A20239, MHA, Table 2) | MIC ([1]; Sa-11 BX-1633 A9606 (β-lactamase), HIA, Table 4) | MIC ([1]; Sa-11 BX-1633 A9606 (β-lactamase), MHA, Table 4) | MIC ([1]; Sa-11 BX-1633 A9606 (β-lactamase), NA, Table 4) | MIC ([1]; Sa-35 A15094, MHA, Table 2) | MIC ([1]; Sa-36 Russell, MHA, Table 2) | MIC ([1]; Sa-39 A9578, MHA, Table 2) | MIC ([1]; Sa-40 A9601, MHA, Table 2) | MIC ([1]; Sa-68 A20612, MHA, Table 2) | MIC ([9]; A9436, MHA, Table 1) | MIC ([9]; Pv-1 A9436, HIA, Table 4) | MIC ([9]; Pv-1 A9436, MHA, Table 4) | MIC ([13]; Kx-3 A20346 (β-lactamase), HIA, Table 4) | MIC ([13]; Kx-3 A20346 (β-lactamase), MHA, Table 4) | MIC ([13]; Kx-3 A20346 (β-lactamase), NA, Table 4)
> 100 µg/mL: MIC ([9]; Pv-5 A9539, MHA, Table 3) | MIC ([9]; Pv-7 A21240, MHA, Table 3) | MIC ([10]; A9843, MHA, Table 1) | MIC ([10]; A9930, MHA, Table 1) | MIC ([10]; Pa-3 A9930, HIA, Table 4) | MIC ([10]; Pa-3 A9930, MHA, Table 4) | MIC ([10]; Pa-3 A9930, NA, Table 4) | MIC [10, 16] | MIC [10, 17]
0.05 µg/mL: MIC ([1]; A9497, MHA, Table 1) | MIC ([1]; Smith A9537, MHA, Table 1) | MIC ([3]; A9516, Table 1)
1.8 mg/kg: ED50 ([6]; Escherichia coli, read-out: PD50)
1.6 µg/mL: MIC ([1]; Sa-58 A15033, MHA, Table 2) | MIC ([9]; Pv-2 A9526, MHA, Table 3) | MIC ([13]; Kx-2 A9662, MHA, Table 3) | MIC ([14]; Citrobacter) | MIC ([14]; Cx-2 A20694, MHA, Table 3) | MIC ([14]; Cx-3 A20695, MHA, Table 3)
6.3 µg/mL: MIC ([1]; Sa-44 A15097, NA, Table 4) | MIC ([1]; Sa-59 A15096, MHA, Table 2) | MIC ([1]; Sa-61 A20605, MHA, Table 2) | MIC ([1]; Sa-64 A20608, MHA, Table 2) | MIC ([1]; Sa-65 A20609, MHA, Table 2) | MIC ([1]; Sa-66 A20610, MHA, Table 2) | MIC ([1]; Sa-67 A20611, MHA, Table 2) | MIC ([1]; Sa-69 A20613, MHA, Table 2) | MIC ([2]; A9684, Table 1) | MIC ([2]; Example 10) | MIC ([9]; A9699, MHA, Table 1) | MIC ([9]; Pv-3 A9699 (β-lactamase), NA, Table 4)
0.0125 µg/mL: MIC ([1]; Sa-33 Terajima, MHA, Table 2)
3.1 µg/mL: MIC ([1]; Sa-44 A15097, HIA, Table 4) | MIC ([1]; Sa-44 A15097, MHA, Table 4) | MIC ([1]; Sa-57 A9748, MHA, Table 2) | MIC ([1]; Sa-60 A20604, MHA, Table 2) | MIC ([2]; Sr-1 A9684, Table 3)
9.4 mg/kg: ED50 ([7]; Run C-805, 3×10^3 LD50, single sc)
0/5: No. of survivors/No. tested ([6]; 0.4 mg./kg.) | No. of survivors/No. tested ([7]; 0.4 mg./kg., Table 6) | No. of survivors/No. tested ([7]; 1.6 mg./kg., Table 6) | No. of survivors/No. tested ([7]; Run C-805, 3×10^3 LD50, single sc, 0.4 mg./kg.) | No. of survivors/No. tested ([7]; Run C-805, 3×10^3 LD50, single sc, 1.6 mg./kg.) | No. of survivors/No. tested ([15]; 0.2 mg./kg.) | No. of survivors/No. tested ([15]; 0.8 mg./kg.) | No. of survivors/No. tested ([15]; 3.1 mg./kg.)
0.1 µg/mL: MIC ([1]; BX-1633 A9606, MHA, Table 1) | MIC ([1]; Sa-12 A9497, MHA, Table 2) | MIC ([1]; strain not named, MHA, Example 10) | MIC ([3]; Ss-1 Yale, Table 3)
12.5 µg/mL: MIC ([1]; Sa-63 A20607, MHA, Table 2) | MIC ([11]; Sm-2 A20335, MHA, Table 3) | MIC ([11]; Sm-3 A20336, MHA, Table 3) | MIC ([11]; Sm-4 A20442, MHA, Table 3) | MIC ([11]; Sm-5 A20222, MHA, Table 3) | MIC ([11]; Sm-6 A20460, MHA, Table 3)
25 µg/mL: MIC ([1]; Sa-44 A15097, MHA, Table 2) | MIC ([11]; Sm-1 A20019, MHA, Table 3) | MIC ([11]; Sm-11 A20459, MHA, Table 3)
1/5: No. of survivors/No. tested ([7]; 6.3 mg./kg., Table 6) | No. of survivors/No. tested ([7]; Run C-805, 3×10^3 LD50, single sc, 6.3 mg./kg.) | No. of survivors/No. tested ([8]; 0.4 mg./kg.) | No. of survivors/No. tested ([15]; 12.5 mg./kg.)
5/5: No. of survivors/No. tested ([6]; 6.3 mg./kg.) | No. of survivors/No. tested ([6]; 25 mg./kg.) | No. of survivors/No. tested ([7]; 25 mg./kg., Table 6) | No. of survivors/No. tested ([7]; Run C-805, 3×10^3 LD50, single sc, 25 mg./kg.) | No. of survivors/No. tested ([8]; 6.3 mg./kg.) | No. of survivors/No. tested ([8]; 100 mg./kg.)
50 µg/mL: MIC ([9]; Pv-3 A9699 (β-lactamase), MHA, Table 4) | MIC ([9]; Pv-3 A9699, MHA, Table 3) | MIC [9, 17] | MIC ([11]; Sm-1 A20019 (β-lactamase), HIA, Table 4) | MIC ([11]; Sm-1 A20019 (β-lactamase), NA, Table 4) | MIC ([11]; Sm-3 A20336, HIA, Table 4) | MIC ([11]; Sm-3 A20336, NA, Table 4) | MIC ([11]; Sm-9 A20333, MHA, Table 3) | MIC ([11]; Sm-10 A20334, MHA, Table 3) | MIC ([11]; Sm-12 A20461, MHA, Table 3)
